Measured values published in PMC4140855, “Production of an Attenuated Phenol-Soluble Modulin Variant Unique to the MRSA Clonal Complex 30 Increases Severity of Bloodstream Infection” (PLoS Pathogens, 2014).

Tests used:
FPR3 = molecular target: T1, FPR3 (Homo sapiens, UniProt P25089); assay: Ca2+ flux in HL60 cells stably transfected with FPR3; format: cell-based; details: one site-binding model from Ca2+ flux, synthetic peptides, three biological and two technical replicates, error = standard deviation
T1 construct: expressed in transfected cells; host or cells: HL60 cells, stably transfected
T1 sequence (P25089 1-353): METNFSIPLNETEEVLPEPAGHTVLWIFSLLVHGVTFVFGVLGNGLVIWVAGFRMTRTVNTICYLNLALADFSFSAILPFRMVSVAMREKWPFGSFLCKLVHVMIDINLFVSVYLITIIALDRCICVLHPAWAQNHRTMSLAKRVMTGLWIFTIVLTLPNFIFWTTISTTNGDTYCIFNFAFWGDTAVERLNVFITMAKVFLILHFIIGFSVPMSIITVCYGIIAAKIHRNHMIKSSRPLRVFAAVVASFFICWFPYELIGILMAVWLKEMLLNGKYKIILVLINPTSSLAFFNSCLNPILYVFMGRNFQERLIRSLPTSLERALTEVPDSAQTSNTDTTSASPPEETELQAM
Experimental: Next, we analyzed Ca^2+ flux as a general measure to test for neutrophil activation, as used in previous studies. HL60 cells stably transfected with different FPR receptor genes were used to determine which FPR receptors are differentially activated by PSMα3 versus PSMα3N22Y (Fig. 4A). […] At a peptide concentration of 100 nM, we observed a difference of ∼factor 2 in chemotactic activity comparing the two peptides when FPR1 recognition was inhibited by CHIPS, likely attributable to FPR2-mediated recognition. […]
(A) Differential activation of FPRs by PSMα3 versus PSMα3N22Y was measured using synthetic peptides and Ca^2+ flux observed in HL60 cells stably transfected with the corresponding FPR genes as readout, using three biological and two technical replicates. The calculated Kd values are shown on the right. […]
(§1) Human neutrophils were isolated from venous blood of healthy donors as described, [39]. Neutrophil chemotaxis and Ca^2+ flux were determined as previously described, [24]. […] Chemotaxis of neutrophils was determined using a transwell system (Costar) with analysis of neutrophil migration using fluorescence labeling. Calcium fluxes were monitored as a surrogate marker for chemotaxis since it can be measured more robustly and accurately than chemotaxis. […] Measurements of 2,000 events were performed and Ca^2+ flux was expressed as relative fluorescence corrected for buffer controls. […]

human neutrophils [1] = assay: Chemotaxis of human neutrophils (transwell migration); format: cell-based; details: synthetic peptides, all tested concentrations, three donors, quadruplicate, compared to PSMα3N22Y
Experimental: Figure 3 PSMα3N22Y has decreased chemotactic activity toward human neutrophils. (A) Chemotaxis of human neutrophils (neutrophil migration) was measured using a transwell system with synthetic peptides at the indicated concentrations. Neutrophils were from three donors and the measurements were performed in quadruplicate. **, p<0.01; ****, p<0.0001. (B) Chemotaxis of human neutrophils tested with culture filtrates (diluted 1∶100) of strains MRSA252 (252, expressing PSMα3N22Y) and 252* (MRSA252 altered to express PSMα3); ****, p<0.0001. Data are from two donors with triplicate measurements. […]
as §1, with “chemotaxis. For measurement of Ca^2+ fluxes, 5×10^6 neutrophils/ml were labeled with a fluorescent dye and analyzed with a FACScalibur (Becton Dickinson) as described.” for “chemotaxis.”

human neutrophils [2] = details: ref [11]; cited from earlier work
From the text: PSMs are short, amphipathic, α-helical peptides with a major impact on S. aureus virulence, [11]. The PSMα peptides of S. aureus in particular cause lysis of a variety of cell types, including neutrophils (or polymorphonuclear leukocytes, PMNs), monocytes, erythrocytes, and osteoblasts [11]–[13]. The rather low target specificity of PSM-mediated cytolysis is due to the fact that lysis is believed to be receptor-independent, [15], which is reflected by the capacity of PSMs to lyse artificial vesicles. In addition, PSMs have pro-inflammatory capacities that are recep ...

SMILES | Kd (FPR3) [nM] | Capacity to cause neutrophil chemotaxis (human neutrophils [1]) | Capacity to elicit chemotaxis by neutrophils, relative to other PSMs (human neutrophils [2]) | Pro-inflammatory and cytolytic potency relative to other PSMs of S. aureus (human neutrophils [2])
CSCC[C@H](NC=O)C(=O)N[C@@H](CCC(=O)O)C(=O)N[C@@H](Cc1ccccc1)C(=O)N[C@H](C(=O)N[C@@H](C)C(=O)N[C@@H](CCCCN)C(=O)N[C@@H](CC(C)C)C(=O)N[C@@H](Cc1ccccc1)C(=O)N[C@@H](CCCCN)C(=O)N[C@@H](Cc1ccccc1)C(=O)N[C@@H](Cc1ccccc1)C(=O)N[C@@H](CCCCN)C(=O)N[C@@H](CC(=O)O)C(=O)N[C@@H](CC(C)C)C(=O)N[C@@H](CC(C)C)C(=O)NCC(=O)N[C@@H](CCCCN)C(=O)N[C@@H](Cc1ccccc1)C(=O)N[C@@H](CC(C)C)C(=O)NCC(=O)N[C@@H](CC(N)=O)C(=O)N[C@@H](Cc1ccc(O)cc1)C(=O)O)C(C)C [PSMα3N22Y] | 953 ± 254 |  |  | 
CSCC[C@H](NC=O)C(=O)N[C@@H](CCC(=O)O)C(=O)N[C@@H](Cc1ccccc1)C(=O)N[C@H](C(=O)N[C@@H](C)C(=O)N[C@@H](CCCCN)C(=O)N[C@@H](CC(C)C)C(=O)N[C@@H](Cc1ccccc1)C(=O)N[C@@H](CCCCN)C(=O)N[C@@H](Cc1ccccc1)C(=O)N[C@@H](Cc1ccccc1)C(=O)N[C@@H](CCCCN)C(=O)N[C@@H](CC(=O)O)C(=O)N[C@@H](CC(C)C)C(=O)N[C@@H](CC(C)C)C(=O)NCC(=O)N[C@@H](CCCCN)C(=O)N[C@@H](Cc1ccccc1)C(=O)N[C@@H](CC(C)C)C(=O)NCC(=O)N[C@@H](CC(N)=O)C(=O)N[C@@H](CC(N)=O)C(=O)O)C(C)C [PSMα3] |  | about twice higher than that caused by PSMα3N22Y at all tested concentrations | by far exceeds that of any other PSM of S. aureus | by far most pro-inflammatory and cytolytic PSM of S. aureus
